Measured values taken from patent publication US20100273748A1, “ANTIMICROBIAL THERAPY” (priority 2006, published 2010).

Legend:
cathelicidin = assay: qPCR of cathelicidin mRNA in cultured keratinocytes; format: cell-based, human
Protocol: (§1) Cell culture and stimuli. Human keratinocytes were grown in serum-free EpiLife® cell culture media (Cascade Biologics; Portland, Oreg.) containing 0.06 mM Ca2+ and 1× EpiLife® defined growth supplement (EDGS) at 37° C. under standard tissue culture conditions. Stock cultures were maintained for up to five passages in this media with the addition of 50 U/mL penicillin and 50 μg/mL streptomycin. HaCaT keratinocytes were cultured in DMEM (Sigma, St. Louis, Mo.) with 10% FCS. Cells at 50-70% confluence were stimulated in fresh medium after preincubation with 1,25(OH)2 vitamin D3 (1,25D3; 0.1-100 nM, 4-24 h; Sigma). Alternatively, NHEK were stimulated in the presence of 1,25D3 (0.1-100 nM). Stimuli included TLR2,6 ligands Malp-2 (0.001-0.5 μg/ml; Alexis Biochemicals, Carlsbad, Calif.), FSL-1 (1-2 μg/ml, Invivogen, San Diego, Calif.) and zymosan (50 μg/ml; Invivogen), as well as flagellin (50 ng/ml; Alexis), LPS (1 μg/ml; Sigma), lipoteichoic acid (LTA; 10 μg/ml; Sigma), 19 kDA lipopeptide (10 μg/ml, a kind gift from S. Krutzik, Division of Dermatology, UCLA), CpG DNA (10 μg/ml; Sigma), Ca2+ (1.7 mM), LPS (1 μg/ml; Sigma), TNFα (20 ng/ml; Chemicon Temecula, Calif.) and TGFβ1 (0.1-1 μg/ml; R&D Systems, Minneapolis, Minn.). A TLR2 blocking antibody (αTLR2; clone TL2.1, 5 μg/ml, eBioscience, San Diego, Calif.) was utilized to investigate the role of TLR2 signaling. Furthermore, keratinocytes were pretreated with a vitamin D receptor antagonist (VDR-antagonist ZK159222 Schering AG; 10^-7M) or the CYP inhibitor itraconazole (ITRA; 10^-7M) before stimulation with TGFβ in the presence of 25OH vitamin D3 (25D3, 10 nM, Sigma).
(§2) Real-time RT-PCR (qPCR). RNA was extracted from cells, epidermal constructs or tissue using Trizol® and 1 μg RNA was reverse transcribed using iScript® (BioRad, Hercules, Calif.). Expression of cathelicidin and GAPDH was analysed by real-time RT-PCR. Predeveloped Taqman® assay probes (ABI, Foster City, Calif.) were used for the analyses of the expression of CYP24A1 (24-hydroxylase), CYP27B1 (1α-hydroxylase), CD14, CD36, TLR1, TLR2, TLR4, TLR6 and murine CD14. All analyses were performed in triplicate from 2-5 independent experiments in an ABI Prism® 7000 Sequence Detection System. Fold induction relative to the vehicle treated control in in vitro experiments was calculated using the comparative Ct method, where ΔΔCt is ΔCt(stimulant)-ΔCt(vehicle), ΔCt is Ct(gene)-Ct(GAPDH) and Ct is the cycle at which an arbitrary detection threshold is crossed. For quantification of transcript abundance in tissue samples target gene expression was normalized to GAPDH and compared to non-treated or non-injured skin.

TLR2 = assay: qPCR of TLR2 mRNA in cultured keratinocytes; format: cell-based, human; details: for TLR2 mRNA expression: 24 hours
Protocol: as §1, §2

CD14 = assay: qPCR of CD14 mRNA in cultured keratinocytes; format: cell-based, human; details: for CD14 mRNA expression: 24 hours
Protocol: as §1, §2

[1] = test system: Staphylococcus aureus mprF; assay: Radial diffusion assay; format: cell-based; details: LL-37 incubated in sweat, 37° C., 6 hr
Protocol: Sweat collection and processing. Sweat was collected on paper tissues (Kimwipes, Kimberly-Clark, Ga.) from healthy volunteers after exercise. After collection, 20 ml of sweat was centrifuged at 2000 g for 15 min. at 4° C., filtered through a […] (Acrodisc syringe filter, 0.2 mm, low protein binding, Fisher scientific, Tustin, Calif.), and frozen at −80° C. For some experiments sweat was lyophilized to dryness, then suspended in 400 μl of distilled water (DW: cell culture grade, endotoxin free, GibcoBRL, Grand island, NY). For analysis of LL37 processing by sweat, 1.6 nmol of LL-37 synthetic peptide was incubated in 50 ml of sweat for 0, 1, 6, 24 hrs at 37° C. or 4° C. In some experiments proteinase inhibitors including; mixed protease inhibitor cocktail (1tab/10 ml, Roche, Indianapolis, Ind.), […] Bestatin, 10 mg/ml E-64, 10 mg/ml Aprotinin, (Sigma, St Louis, Mo.); 100 mM AEBSF, 100 mM Neutrophil elastase inhibitor (NEI) or 100 mM leukocyte elastase inhibitor (LEI) (Calbiochem, San Diego, Calif.) were added during incubation. After incubation, 2 ml was assayed by radial diffusion assay to determine antibacterial activity. For analysis by HPLC 32 nmoles LL-37 was incubated in 100u1. To control for potential contamination from paper tissues, parallel processing was done on tissues soaked in phosphate-buffered saline (PBS:137 mM NaCl, 2.7 mM KCL, 4.3 mM Na2HPO4-H2O, 1.4 mM KH2PO4, pH 7.4). No antimicrobial activity was detectable in these preparations. Protein concentrations were evaluated by BCA assay (protein assay reagent, Pierce, Rockford, Ill.) or Bradford protein assay (Bio-Rad, Hercules, Calif.) according to manufacture's instructions. Human tissue and blood collection was approved by the UCSD Human Research Protection Program.
Antimicrobial assays. For screening of antimicrobial activity of HPLC fractions, radial diffusion assay was used. Lyophilized HPLC fractions were dissolved in DW (GibcoBRL, Grand Island, N.Y.), and tested against Staphylococcus aureus mprF. Thin plates (1 mm) of 1% agarose in 0.5% tryptone containing approximately 1×10^6 cells/ml of S. aureus mprF were used. 1 mm wells were punched in the plates and […] of samples dissolved in tissue culture grade sterile water were loaded in each well.

acetylated histone H4 = assay: Histone H4 acetylation in keratinocytes (immunofluorescence, Western blot); format: cell-based, human; details: NHEK stimulated with butyrate or TLR ligand
Protocol: Panel a; Immunofluorescence staining of acetylated histone H4 protein in NHEK treated with HDACi in the presence or absence of 1,25D3. […] Panel b: Western blot of acetylated histone 4 from keratinocytes treated with the HDACi butyrate or TLR agonists. […] Bar=30 μM.
The abundance of acetylated histone was directly measured to confirm the inhibitory effects of butyrate and TSA on HDACs. […] To determine if changes in histone acetylation occur upon stimulation of keratinocytes with TLR ligands NHEK were stimulated with different TLR ligands and histone acetylation was assessed.

Staphylococcus aureus = assay: Bacterial growth inhibition (turbidity OD600) with or without carbonate; format: cell-based; details: for increase of LL-37 antimicrobial activity by carbonate containing compound: medium with 32 μM LL-37, pH 7.4, KHCO3 and Na2CO3 at 50 mM
S. aureus DmprF = assay: Antimicrobial activity of keratinocyte lysates (bacterial growth, OD600); format: cell-based, Staphylococcus aureus; details: versus unstimulated keratinocytes
Protocol: Panel a: NHEKs were stimulated with 1,25D3 (10^−9-10^−7 M) in the presence of the HDAC inhibitor butyrate (BUT; 2 mM) for 24 hours. mRNA abundance was determined by real-time qPCR for cathelicidin and glyceraldehyde-3-phosphate dehydrogenase and normalized to vehicle-treated controls. […] Data shown are means (7SD) of the results from a single stimulation experiment performed in triplicates and are representative of at least three independent experiments (**P<0.01; ***P<0.001; two-way analysis of variance). Panel b: The HDAC inhibitor TSA (200 ng ml^−1) induces cathelicidin in the presence of 1,25D3 (10^−8M). Expression of cathelicidin is dependent on a functional VDR, as pretreatment with the VDR antagonist ZK159222 (10^−7 M) inhibits induction of cathelicidin with BUT (2 mM) in the presence of 1,25D3 (10^−8 M) after 24 hours. Expression of cathelicidin was determined by qPCR as described in Panel a. (*P<0.05; Student's t-test). Panel c: Increased transcript correlates with enhanced cathelicidin protein expression after HDAC inhibitor and 1,25D3 stimulation. NHEKs grown on chamber slides were stimulated with the vehicle, 1,25D3 (10^−8M), BUT (2 mM), or the combination for 24 hours. Cells were stained with a polyclonal anti-LL-37 antibody (followed by an FITC-coupled secondary antibody) and nuclei detected with 4,6-diamidino-2-phenylindole (Bar=30 μM). […] NHEKs were stimulated with 1,25D3 (10^−8M) in combination with the HDAC inhibitor BUT (2 mM) for 24 hours, cells harvested and cell lysates co-incubated with S. aureus DmprF, and bacterial growth monitored over time to determine antimicrobial activity. Media not containing cell lysates or containing cell lysates from unstimulated cells were used as controls.

C. albicans = assay: Liquid assay, minimum fungicide concentration; format: cell-based, Candida albicans
Protocol: Action against the C. albicans was determined in Dixon medium (0.6% Peptone, 4% Malt Extract, 1% Glucose, 0.1% Ox Bile, 1% Tween-80) in sterile 96-well microtiter plates (Corning Inc., Corning, N.Y.) at a final volume of 50 ml. […] Microtiter plates were incubated at 37° C. for 24 h with peptides, then plated on Dixon agar to determine the MFC (minimum fungicide concentration).

[2] = test system: wild-type S. aureus (clinical isolate); assay: Radial diffusion assay; format: cell-based
[3] = test system: enteroinvasive E. coli 029; assay: Radial diffusion assay; format: cell-based
[4] = 25D3 (10 nM) or TGF (1 μg/ml) alone
[5] = 25D3 (10 nM) together with TGF (1 μg/ml)
[6] = pretreatment with antagonist 10^−7M
[7] = radial diffusion and solution assay

C=C1CC[C@H](O)C/C1=C/C=C1\CCC[C@]2(C)[C@@H]([C@H](C)CCCC(C)(C)O)CC[C@@H]12 [25D3, 25OH vitamin D3]
cathelicidin mRNA expression (cathelicidin; 25D3 (10 nM) or TGF (1 μg/ml) alone, 24 hours): Neither 25D3 nor TGF alone affected expression
cathelicidin mRNA expression (cathelicidin; 25D3 (10 nM) together with TGF (1 μg/ml), 24 hours): simultaneous addition induced
TLR2 mRNA expression (TLR2; [4]): Neither 25D3 nor TGF alone affected expression
TLR2 mRNA expression (TLR2; [5]): simultaneous addition induced
CD14 mRNA expression (CD14; [4]): Neither 25D3 nor TGF alone affected expression
CD14 mRNA expression (CD14; [5]): simultaneous addition induced

NCCc1ccc(S(=O)(=O)F)cc1 [AEBSF]
blocking of the gain in LL-37 antimicrobial activity in sweat by protease inhibitor [1]: most effective in blocking the increase in antimicrobial activity

CCCc1nc2c(N)nc3ccccc3c2s1 [CL075]
acetylation of histone H4 (acetylated histone H4): did not change histone acetylation

CC(C)Cn1cnc2c(N)nc3ccccc3c21 [Imiquimod]
acetylation of histone H4 (acetylated histone H4): did not change histone acetylation

O=C([O-])O.[K+] [KHCO3]
increase of LL-37 antimicrobial activity by carbonate containing compound (Staphylococcus aureus): also increased antimicrobial activity

O=C([O-])[O-].[Na+].[Na+] [Na2CO3]
increase of LL-37 antimicrobial activity by carbonate containing compound (Staphylococcus aureus): also increased antimicrobial activity

CC(/C=C/C(=O)NO)=C\[C@@H](C)C(=O)c1ccc(N(C)C)cc1 [Trichostatin A]
effect of HDAC inhibitor on 1,25D3 induced cathelicidin (cathelicidin; TSA 200 ng ml^−1 with 1,25D3 (10^−8M)): significantly increased 1,25D3 induced cathelicidin

C=C1/C(=C\C=C2/CCC[C@]3(C)[C@@H]([C@H](C)/C=C/[C@@H](O)C4(C(=O)OCCCC)CC4)CC[C@@H]23)C[C@@H](O)C[C@@H]1O [VAZ]
effect of VDR antagonist on cathelicidin induction by HDAC inhibitor plus 1,25D3 (cathelicidin; ZK159222 10^−7 M, BUT 2 mM, 1,25D3 10^−8 M, 24 hours): decreased the capacity of the HDAC inhibitor to increase cathelicidin
block of cathelicidin induction by TGF plus 25D3 (cathelicidin; [6]): blocked this effect
block of TLR2 induction by TGF plus 25D3 (TLR2; [6]): blocked this effect
block of CD14 induction by TGF plus 25D3 (CD14; [6]): blocked this effect

C=C1CC[C@H](O)C/C1=C/C=C1\CCC[C@]2(C)[C@@H]([C@H](C)CCCC(C)C)CC[C@@H]12 [Vitamin D3]
antimicrobial activity of stimulated keratinocytes against Staphalococcus aureus (S. aureus DmprF): enhanced antimicrobial activity
expression of cathelicidin (cathelicidin; normal human keratinocytes and HaCat cell line): induced the expression of cathelicidin

Aprotinin
blocking of the gain in LL-37 antimicrobial activity in sweat by protease inhibitor [1]: most effective in blocking the increase in antimicrobial activity

FSL-1
cathelicidin induction by TLR2,6 ligand (cathelicidin; in the presence of 1,25D3 (100 nM)): capable of inducing cathelicidin

Human Beta Defensin-2
enhancement of peptide activity by 50 mM NaHCO3 (EF) (Staphylococcus aureus; 20% TSB, 10% FBS, 1 mM NaH2PO4, 150 mM NaCl, pH 7.4): enhanced

KRIVQRIKDFLRNLVPRTES [KR-20, 20 amino acid cathelicidin derivative generated from LL-37 in sweat]
fungicidal activity against Candida albicans compared to LL-37 (C. albicans): increased fungicidal activity
Radial Diffusion Assay, minimal inhibitory concentration (MIC), S. aureus (wt) [2]: 4 μm
Radial Diffusion Assay, minimal inhibitory concentration (MIC), E. coli (O29)) [3]: 4 μm

PR-39: porcine cathelicidin antimicrobial peptide (RRRPRPPYLPRPRPPPFFPPRLPPRIPPGFPPRFPPRFP; UniProt P80054 131-169, looked up)
change of minimal inhibitory concentration (MIC) by NaHCO3 (Staphylococcus aureus; 20% TSB, 1 mM NaH2PO4, with or without 50 mM NaHCO3, pH 7.4): greatly reduced

Poly(I:C)
acetylation of histone H4 (acetylated histone H4): did not change histone acetylation

RKSKEKIGKEFKRIVQRIKDFLRNLVPRTES [RK-31, cathelicidin peptide generated from LL-37 in sweat]
fungicidal activity against Candida albicans compared to LL-37 (C. albicans): increased fungicidal activity
action against wild-type S. aureus compared to LL-37 [2, 7]: greatly increased action
action against E. coli compared to LL-37 [3, 7]: greatly increased action

flagellin
cathelicidin expression in response to TLR ligand (cathelicidin; keratinocytes pretreated with 1,25D3 0.1 nM 24 hours, then TLR ligand 24 hours): not to other TLR agonists
acetylation of histone H4 (acetylated histone H4): did not change histone acetylation
